Assay results: patent publication US20070231382A1, “Pharmaceutical composition” (priority 2001, published 2007)

Legend:
[1] = Plasma half life after oral administration; type: in vivo; conditions: human
From the text: The immediate release pharmaceutical compositions of the invention, and which are useful in the kits and methods of the invention are “immediate release” tablet dosage forms. The tablets of the invention have neither the pharmacokinetic nor physical characteristics of extended release pharmaceutical dosage forms. Thus, a tablet of the invention will disintegrate or dissolve rapidly, preferably within one hour of administration, and administration of a tablet of the invention will result in a rapid rise in the blood plasma concentration of 5-methyl-2-(2′-chloro-6′-fluoroanilino)phenylacetic acid.

[2] = Compressibility of the drug substance; type: physicochemical; conditions: drug substance and its pharmaceutically acceptable salts
Experimental: WO 99/11605, published Mar. 11, 1999 discloses 5-alkyl-2-arylaminophenylacetic acids and derivatives thereof as potent, selective inhibitors of cyclooxygenase-2. […] This active agent, when administered once a day, in a single, immediate release tablet formulation in an amount of about 400 mg, where the active agent comprises about 65% by weight of the tablet, provides effective anti-inflammatory treatment over a 24 hour period, without the use of extended release pharmaceutical formulation excipients and technology, and in a tablet form which is of a size that is easy to swallow.

[3] = Clinical efficacy of once a day oral dose (anti-inflammatory, analgesic); type: in vivo, humans
Experimental: Such an agent is particularly useful in the treatment of chronic indications, such as rheumatoid arthritis and osteoarthritis as well as Alzheimer's Disease and prophylaxis of colon cancer, where the drug needs to be taken every day for the duration of a subject's life, because compliance is much easier with once a day dosing.
A single, 400 mg tablet that is easy to swallow facilitates compliance with a once-a-day, 400 mg dose treatment regimen.

half-life [1]: 3 to 6 h
Compressibility [2]: poor compressibility
SMILES: Cc1ccc(Nc2c(F)cccc2Cl)c(CC(=O)O)c1 [5-methyl-2-(2′-chloro-6′-fluoroanilino)phenylacetic acid]
Analgesic efficacy ([3]; 400 mg): effective analgesic dose
Anti-inflammatory treatment, duration of action ([3]; humans, single oral dose of about 400 mg per day, immediate-release tablet): effective, safe anti-inflammatory treatment over a 24 hour period
